# According to patent publication US20230339991A1, “HYPOXIA-ACTIVATED DNA ALKYLATING AGENT AND MEDICAL USE THEREOF” (ASCENTAWITS PHARMACEUTICALS, LTD., priority 2020, published 2023):
# Legend:
# ICR mice = assay: Maximal tolerance dose (MTD) test, compound B; format: in vivo; details: 40 mg/kg group; i.v. QD×5
# Experimental: 18 ICR mice, 9 females/9 males, were randomly divided into compound B 10 mg/kg group, 20 mg/kg group and 40 mg/kg group according to gender and body weight, with 3 females/3 males in each group. […] It was administered once a day for 5 days, and recovered for 2 weeks after the last administration. The animals were closely observed for 2 h after administration on the administration day and once a day in the morning and once in the afternoon on the non-administration day. Body weight and dietary intake were measured twice a week during the test period. Dead animals and all surviving animals after 14 days from the last administration were subjected to autopsy. The autopsy was performed on the pathological organs, and histopathological examination of the pathological organs was performed.
# NCIH1755 = assay: Cytotoxicity, NSCLC cell line NCIH1755; format: cell-based; details: Homo sapiens, NCI-H1755
# Experimental: (§1) Compounds were exposed at various concentrations for 72 hours, followed by a wash step. Fresh medium was added for growth. The cell was stained to determine the cell survival rate and compared with controls treated with medium only.
# (§2) In particular, exponentially grown cells were inoculated in 96-well plates at a density of 2×10^3 cells/100 μl/well and incubated for 24 hours at 37° C. and under the conditions of 5% CO2, 95% air and 100% relative humidity before addition of 99 μl of culture solution. The compounds were dissolved in 100% DMSO at 200 times of the desired final test concentration. When the drug was added, an aliquot of 1 μl of the compound at the specified concentration was added to microwells already containing 199 μl of medium to obtain the reported final drug concentration. After adding the drug, plates were incubated for an additional 72 hours at 37° C., 5% CO2, 95% air and 100% relative humidity. The cell assay plate was left to balance for 30 minutes at room temperature and 100 μL of medium was removed from per well. 100 μl CTG reagent (CelltiterGlo kit) was added into each well. The plate was placed on a fast shaker and shaked for 2 min, and kept in dark at room temperature for 30 min. The chemiluminescence signal value was read by Envision instrument. […]
# [1] = test system: human lung cancer NCI-H460 subcutaneous xenograft; assay: Human lung cancer NCI-H460 subcutaneous xenograft model, compound A; format: in vivo, BALB/c nude mice
# Experimental: BALB/c nude mice were subcutaneously inoculated with human lung cancer NCI-H460 cells to establish human lung cancer subcutaneous transplantation tumor model. […] The test drug compound A 40 mg/kg group was administered by tail vein injection once every three weeks for 2 times, and observed for one week after the second administration. The test drug compound A 20 mg/kg group was administered by intraperitoneal injection once a day for 5 days continuously, and observed for 24 days. […] The administration dosage of compound A was determined according to the MTD test.
# The tumor volumes of mice from each group were measured at different days and the average values were taken.
# NCI-H2228 = assay: Cytotoxicity, NSCLC cell line NCI-H2228; format: cell-based; details: Homo sapiens
# Experimental: as §1, §2
# NCIH2106 = assay: Cytotoxicity, NSCLC cell line NCIH2106; format: cell-based; details: Homo sapiens
# Experimental: as §1, §2
# Panc 02.03 = assay: Cytotoxicity, pancreatic cancer PA cells Panc 02.03; format: cell-based; details: Homo sapiens
# Experimental: as §1, §2
# CAL12T = assay: Cytotoxicity, NSCLC cell line CAL12T; format: cell-based; details: Homo sapiens, CAL-12T
# Experimental: as §1, §2
# KP-2 = assay: Cytotoxicity, pancreatic cancer PA cells KP-2; format: cell-based; details: Homo sapiens
# Experimental: as §1, §2
# Capan-1 = assay: Cytotoxicity, pancreatic cancer PA cells Capan-1; format: cell-based; details: Homo sapiens
# Experimental: as §1, §2
# KP-4 = assay: Cytotoxicity, pancreatic cancer PA cells KP-4; format: cell-based; details: Homo sapiens
# Experimental: as §1, §2
# NCI-H23 = assay: Cytotoxicity, NSCLC cell line NCI-H23; format: cell-based; details: Homo sapiens
# Experimental: as §1, §2
# NCI-H1944 = assay: Cytotoxicity, NSCLC cell line NCI-H1944; format: cell-based; details: Homo sapiens
# Experimental: as §1, §2
# NCI-H1563 = assay: Cytotoxicity, NSCLC cell line NCI-H1563; format: cell-based; details: Homo sapiens
# Experimental: as §1, §2
# PANC-1 = assay: Cytotoxicity, pancreatic cancer PA cells PANC-1; format: cell-based; details: Homo sapiens
# Experimental: as §1, §2
# [2] = test system: human liver cancer HepG2 subcutaneous xenograft; assay: Human liver cancer HepG2 subcutaneous xenograft model; format: in vivo, BALB/c nude mice; details: for relative tumor inhibition rate TGI (%): QW×3, tail vein, Day 45
# Excerpt: BALB/c nude mice were subcutaneously inoculated with human liver cancer HepG2 cells to establish human liver cancer subcutaneous transplantation tumor model.
# [3] = test system: HuPrime pancreatic cancer PA3546 subcutaneous xenograft PDX tumor; assay: PA3546 human pancreatic cancer subcutaneous PDX model; details: for relative tumor inhibition rate TGI (%): Day 25
# Experimental: BALB/c nude mice were subcutaneously inoculated with HuPrime® model PA3546 tumor blocks to establish human pancreatic cancer subcutaneous transplantation tumor model. […] Efficacy was evaluated according to the relative tumor inhibition rate TGI (%), and safety was evaluated according to the change in body weight and the death of animals.
# [4] = Liver microsome stability, monkey
# Experimental: 1) Two individual experiments were performed.
# 1a) With NADPH: 10 μL of 20 mg/mL liver microsomes and 40 μL of 10 mM NADPH were added to the culture solution. The final concentrations of microsomes and NADPH were 0.5 mg/mL and 1 mM, respectively.
# 1b) Without NADPH: 10 μL of 20 mg/mL liver microsomes and 40 μL of ultrapure H2O were added to the culture solution. The final concentration of microsomes was 0.5 mg/mL.
# 3) 50 μL of aliquots were taken from the reaction solution at 0 min and 30 min. The reaction was terminated by adding 4 volumes of cold acetonitrile and four internal standards (IS, 100 nM alprazolam, 200 nM caffeine, 200 nM labetalol and 2 μM ketoprofen). The samples were centrifuged at 3, 220×g for 40 min. The aliquots of 100 μL of supernatant were mixed with 100 μL of ultrapure H2O and then used for LC-MS/MS analysis. All experiments were performed in duplicate.
compound,measurement,setting,value
O=[N+]([O-])c1ccc([C@H](OP(=O)(N2CC2)N2CC2)C(F)(F)F)c2ccccc12 [Compound B],animal deaths,ICR mice,Three of the six
O=[N+]([O-])c1ccc(C(OP(=O)(N2CC2)N2CC2)C(F)(F)F)c2ccccc12 (racemic) [Compound A],IC50,NCIH1755,6.46 µM
same,relative tumor inhibition rate TGI (%),"[1]; 40 mg/kg, Q3W×2, IV, Day31",66.87%
same,tumor volume,"[1]; Test Group 7, 40 mg/kg IV, day 10",184.06 mm^3
same,tumor volume,"[1]; Test Group 7, 40 mg/kg IV, day 14",153.75 mm^3
same,tumor volume,"[1]; Test Group 7, 40 mg/kg IV, day 17",159.72 mm^3
same,tumor volume,"[1]; Test Group 7, 40 mg/kg IV, day 21",218.13 mm^3
same,tumor volume,"[1]; Test Group 7, 40 mg/kg IV, day 24",291.07 mm^3
same,tumor volume,"[1]; Test Group 7, 40 mg/kg IV, day 28",520.17 mm^3
same,tumor volume,"[1]; Test Group 7, 40 mg/kg IV, day 31",580.70 mm^3
same,tumor volume,"[1]; Test Group 7, 40 mg/kg IV, day 35",447.32 mm^3
same,tumor volume,"[1]; Test Group 7, 40 mg/kg, Q3W×2, IV, day 7",143.84 mm^3
same,tumor volume,"[1]; Test Group 8, 20 mg/kg IP, day 10",173.09 mm^3
same,tumor volume,"[1]; Test Group 8, 20 mg/kg IP, day 14",152.99 mm^3
same,tumor volume,"[1]; Test Group 8, 20 mg/kg IP, day 17",130.06 mm^3
same,tumor volume,"[1]; Test Group 8, 20 mg/kg IP, day 21",129.66 mm^3
same,tumor volume,"[1]; Test Group 8, 20 mg/kg IP, day 24",164.63 mm^3
same,tumor volume,"[1]; Test Group 8, 20 mg/kg IP, day 28",272.20 mm^3
same,tumor volume,"[1]; Test Group 8, 20 mg/kg IP, day 31",447.50 mm^3
same,tumor volume,"[1]; Test Group 8, 20 mg/kg IP, day 35",651.58 mm^3
same,tumor volume,"[1]; Test Group 8, 20 mg/kg, QD×5×1 week, IP, day 7",144.63 mm^3
same,IC50,NCI-H2228,0.264 µM
same,IC50,NCIH2106,14.8 µM
same,IC50,Panc 02.03,45.7 µM
same,IC50,CAL12T,30.5 µM
same,IC50,KP-2,29.7 µM
same,IC50,Capan-1,5.97 µM
same,IC50,KP-4,6.1 µM
same,IC50,NCI-H23,6.41 µM
same,IC50,NCI-H1944,0.538 µM
same,IC50,NCI-H1563,4.45 µM
same,IC50,PANC-1,29.3 µM
"O=[N+]([O-])c1ccc([C@@H](OP(=O)(N2CC2)N2CC2)C(F)(F)F)c2ccccc12 (single isomer, unassigned) [Compound C]",cure rate,[2]; 20 mg/kg (Group 5),20%
same,relative tumor inhibition rate TGI (%),[2]; 20 mg/kg,33.10%
same,cure rate,[2]; 40 mg/kg (Group 6),20%
same,relative tumor inhibition rate TGI (%),[2]; 40 mg/kg,75.59%
same,body weight loss / tolerability,[3]; 10 mg/kg (Group 3),no significant body weight loss and were well tolerated
same,relative tumor inhibition rate TGI (%),[3]; 10 mg/kg tail vein QW×3,32.35%
same,body weight loss / death,[3]; 20 mg/kg (Group 4),significant weight loss and even death of individual or part of mice
same,relative tumor inhibition rate TGI (%),[3]; 20 mg/kg tail vein QW×3,36.79%
same,body weight loss / death,[3]; 40 mg/kg (Group 5),significant weight loss and even death of individual or part of mice
same,relative tumor inhibition rate TGI (%),[3]; 40 mg/kg tail vein QW×3,35.93%
CC(OP(=O)(N1CC1)N1CC1)c1ccc([N+](=O)[O-])c2ccccc12 (centres unmarked) [Compound D],Remaining percentage after 30 minutes,[4]; with NADPH,0.86%
same,Remaining percentage after 30 minutes,[4]; without NADPH,95.89%
